Laboratory results as given in US20250134892A1, “COMBINATION OF COMPOUNDS FOR TREATING VASCULAR DISEASES COMPRISING PDE5 INHIBITOR, ARGININE AND N-ACETYLCYSTEINE” (Future Pharmtech Inc., priority 2022, published 2025).
Like-named read-outs stand apart in the source and are kept apart here.

What was measured:
[1] = test system: Human umbilical vein endothelial cells (HUVEC); assay: Nitric oxide release amount from endothelial cells (NO assay kit); format: cell-based; settings: vascular endothelial cells; for release amount of nitric oxide compared with control group (drug treatment for 0 min): 100 nM sildenafil
Procedure: Sildenafil, arginine, N-acetylcysteine, and S-nitroso-N-acetylpenicillamine (SNAP) are dissolved and diluted in phosphate buffered saline (PBS). […] The solutions are stored at a temperature of 4° C. […] Human umbilical vein endothelial cells (HUVEC) obtained from Bioresource Collection and Research Center (Hsinchu, Taiwan) were cultured in Ham's F-12K (Sigma-Aldrich) with endothelial cell growth supplement (Millipore), heparin (Sigma-Aldrich), 2.2 mg/mL sodium bicarbonate, and 10% FBS (Gibco). HUVEC at passage 5 to 15 were used in all applications. Human pulmonary artery vascular smooth muscle (PAVSM) cells and growth media were obtained from Lonza Inc. (Walkersville, MD., USA). Cells were grown in a 5% CO2 atmosphere at 37° C. For cell treatments, HUVEC and PAVSM cells were grown in confluence respectively on the upper and lower wells of Transwell® units. Culture medium volume in each upper chamber was 1.5 mL, and in each lower chamber was 2.5 mL. […] All supernatants of HUVEC and PAVSM were collected right after the treatments for the NO amount analysis. HUVEC cells and PAVSM cells were rinsed in ice-cold phosphate buffered saline and then solubilized in ice-cold 6% trichloroacetic acid for the protein extraction. Samples were stored at −80° until the assays. Analysis of Nitric Oxide Release Amount from Endothelial Cells The nitric oxide amount was assessed using the NO assay kit (Promega). After treatment, the supernatants of HUVEC were collected for the NO assay reagent kit, and 200 μL per well was applied according to the manufacturer's instructions. Relative Luminance Unit (RLU) emitted by the product was measured using a microreader.

[2] = test system: HUVEC; assay: Quantitative free radical ROS content (Cm-H2DCFDA); format: cell-based, Human; settings: vascular endothelial cells, treatment 10 min (FIG. 6)
Procedure: (§1) Sildenafil, arginine, N-acetylcysteine, and S-nitroso-N-acetylpenicillamine (SNAP) are dissolved and diluted in phosphate buffered saline (PBS). […] The solutions are stored at a temperature of 4° C.
(§2) Human umbilical vein endothelial cells (HUVEC) obtained from Bioresource Collection and Research Center (Hsinchu, Taiwan) were cultured in Ham's F-12K (Sigma-Aldrich) with endothelial cell growth supplement (Millipore), heparin (Sigma-Aldrich), 2.2 mg/mL sodium bicarbonate, and 10% FBS (Gibco). HUVEC at passage 5 to 15 were used in all applications. Human pulmonary artery vascular smooth muscle (PAVSM) cells and growth media were obtained from Lonza Inc. (Walkersville, MD., USA). Cells were grown in a 5% CO2 atmosphere at 37° C.
For cell treatments, HUVEC and PAVSM cells were grown in confluence respectively on the upper and lower wells of Transwell® units. […]
Detection Mode of Quantitative Free Radical ROS Content
ROS detection studies were performed using a Cm-H2DCFDA ROS detection kit (Invitrogen, Grand Island, NY, USA). […] ROS generation was measured every 10 min up to 2 h with a micro-reader at 490 nm excitation, 530 nm emission. […] Samples were then measured immediately using a Promega microreader. ROS levels generated by 2.5×10^4 viable treated cells were expressed as the percentage of ROS produced by an equal number of viable negative control cells.

[3] = test system: HUVEC; assay: Vascular permeability analysis: VEGF-A release content; format: cell-based, Human; settings: vascular endothelial cells, treatment 10 min (FIG. 8)
Procedure: as §1, §2
For cell treatments, HUVEC and PAVSM cells were grown in confluence respectively on the upper and lower wells of Transwell® units. Culture medium volume in each upper chamber was 1.5 mL, and in each lower chamber was 2.5 mL. Confluent HUVEC cells were treated with regular medium in the presence or absence of S, SS, SN, SSN and SAN for 0, 10, 20, 30 and 60 min. All supernatants of HUVEC and PAVSM were collected right after the treatments for the NO amount analysis. […]
VEGFA amount was assessed using the VEGFA assay kit (Promega). […] Relative Absorbance Unit at 540 nm emitted by the product was measured using a microreader.

[4] = sildenafil alone, healthy elderly subjects (65 years or older); cited from earlier work
[5] = test system: Human pulmonary artery vascular smooth muscle (PAVSM) cells; assay: cGMP in smooth muscle cells (cGMP immunoassay); format: cell-based; settings: for amount of cGMP compared with control group (drug treatment for 0 min): 100 nM sildenafil
Procedure: Sildenafil, arginine, N-acetylcysteine, and S-nitroso-N-acetylpenicillamine (SNAP) are dissolved and diluted in phosphate buffered saline (PBS). […] The solutions are stored at a temperature of 4° C. […] Human umbilical vein endothelial cells (HUVEC) obtained from Bioresource Collection and Research Center (Hsinchu, Taiwan) were cultured in Ham's F-12K (Sigma-Aldrich) with endothelial cell growth supplement (Millipore), heparin (Sigma-Aldrich), 2.2 mg/mL sodium bicarbonate, and 10% FBS (Gibco). HUVEC at passage 5 to 15 were used in all applications. Human pulmonary artery vascular smooth muscle (PAVSM) cells and growth media were obtained from Lonza Inc. (Walkersville, MD., USA). Cells were grown in a 5% CO2 atmosphere at 37° C. For cell treatments, HUVEC and PAVSM cells were grown in confluence respectively on the upper and lower wells of Transwell® units. Culture medium volume in each upper chamber was 1.5 mL, and in each lower chamber was 2.5 mL. […] All supernatants of HUVEC and PAVSM were collected right after the treatments for the NO amount analysis. HUVEC cells and PAVSM cells were rinsed in ice-cold phosphate buffered saline and then solubilized in ice-cold 6% trichloroacetic acid for the protein extraction. Samples were stored at −80° until the assays. Analysis of cGMP in Smooth Muscle Cells […] Nitric Oxide-Cyclic GMP Signaling Pathway as an Illustrative Example and Derivation of the General Case; PLOS COMPUTATIONAL BIOLOGY, DOI:10.1371/journal.pcbi.1004822 Mar. 17, 2016). cGMP formation was measured by immunoassay according to the cGMP Assay (Cayman Chemical Co., Ann Arbor, MI).

[6] = test system: Endothelial nitric oxide synthase (eNOS); assay: Expression amount of endothelial nitric oxide synthase (eNOS assay kit); format: cell-based, Human; settings: vascular endothelial cells, treatment 10 min (FIG. 3)
Procedure: Sildenafil, arginine, N-acetylcysteine, and S-nitroso-N-acetylpenicillamine (SNAP) are dissolved and diluted in phosphate buffered saline (PBS). […] The solutions are stored at a temperature of 4° C. […] Human umbilical vein endothelial cells (HUVEC) obtained from Bioresource Collection and Research Center (Hsinchu, Taiwan) were cultured in Ham's F-12K (Sigma-Aldrich) with endothelial cell growth supplement (Millipore), heparin (Sigma-Aldrich), 2.2 mg/mL sodium bicarbonate, and 10% FBS (Gibco). HUVEC at passage 5 to 15 were used in all applications. Human pulmonary artery vascular smooth muscle (PAVSM) cells and growth media were obtained from Lonza Inc. (Walkersville, MD., USA). Cells were grown in a 5% CO2 atmosphere at 37° C. For cell treatments, HUVEC and PAVSM cells were grown in confluence respectively on the upper and lower wells of Transwell® units. Culture medium volume in each upper chamber was 1.5 mL, and in each lower chamber was 2.5 mL. […] All supernatants of HUVEC and PAVSM were collected right after the treatments for the NO amount analysis. […] Analysis of Expression Amount of Endothelial Nitric Oxide Synthase Endothelial nitric oxide synthase (eNOS) activity was assessed using the eNOS assay kit (Promega). […] Relative Luminance Unit (RLU) emitted by the product was measured using a microreader.

[7] = test system: HUVEC; assay: Vascular fibrosis index: lipid peroxidation (malondialdehyde, MDA); format: cell-based, Human; settings: vascular endothelial cells, treatment 10 min (FIG. 7)
Procedure: as §1, §2
For cell treatments, HUVEC and PAVSM cells were grown in confluence respectively on the upper and lower wells of Transwell® units. Culture medium volume in each upper chamber was 1.5 mL, and in each lower chamber was 2.5 mL. […]
Lipid peroxidation in HUVEC protein extracts was quantified measuring the concentration of MDA by a spectrofluorometric assay using an “MDA assay kit” as described by Richard et al., 1992 (Richard et al. 1992). Quantification was achieved by parallel measurements of a standard curve of known MDA concentrations, and results were expressed as level change of the control.

[8] = test system: erectile dysfunction; settings: sildenafil alone, placebo 25%, cited from earlier work

amount of ROS compared with control group (with no drug treatment) [2]: about 2.8 folds
amount of VEGFA compared with control group (with no drug treatment) [3]: about 3.9 folds
amount of MDA compared with control group (with no drug treatment) [7]: about 2.8 folds
Compound: CCCc1nn(C)c2c(=O)[nH]c(-c3cc(S(=O)(=O)N4CCN(C)CC4)ccc3OCC)nc12 [SILD, sildenafil]
release amount of nitric oxide compared with control group (drug treatment for 0 min) ([1]; treatment 10 min (FIG. 1)): about 1.6 folds
release amount of nitric oxide compared with control group (drug treatment for 0 min) ([1]; treatment 20 min (FIG. 1)): about 2.6 folds
release amount of nitric oxide compared with control group (drug treatment for 0 min) ([1]; treatment 30 min (FIG. 1)): about 3.1 folds
release amount of nitric oxide compared with control group (drug treatment for 0 min) ([1]; treatment 60 min (FIG. 1)): about 3.5 folds
release amount of nitric oxide compared with control group (with no drug) ([1]; 10-min drug treatment (FIG. 2)): about 1.6 folds
clearance rate in elderly subjects [4]: decreased
amount of cGMP compared with control group (drug treatment for 0 min) ([5]; treatment 10 min (FIG. 4)): about 2.6 folds
amount of cGMP compared with control group (drug treatment for 0 min) ([5]; treatment 20 min (FIG. 4)): ~3 folds
amount of cGMP compared with control group (drug treatment for 0 min) ([5]; treatment 30 min (FIG. 4)): ~4.7 folds
amount of cGMP compared with control group (drug treatment for 0 min) ([5]; treatment 60 min (FIG. 4)): ~5.5 folds
amount of cGMP compared with control group (with no drug) ([5]; 10-min treatment (FIG. 5)): about 2.6 folds
expression amount of nitric oxide synthase compared with control group (with no drug) [6]: about 2 folds
proportion of disease improvement ([8]; 25 mg): 62%
proportion of disease improvement ([8]; 50 mg): 74%
proportion of disease improvement ([8]; 100 mg): 82%
